Where a name gives a salt, the structure may show the parent alone. Read-outs that look alike come from different tables or passages of the source.
Test system: T98G human glioblastoma cell line
Test: Antiproliferative assay (MTS), GI50 in T98G cells
Assay type: cell-based
Conditions: for GI50: Homo sapiens, T98G
Description: General methods are known for determining the effect of compounds on proliferation of cells. See, e.g., Zhu et al., J. Med. Chem., 2006, 49, 2063-2076. Cells can be selected by one of skill in the art and can be maintained as exponentially growing cultures in a suitable medium (e.g., RPMI 1640 medium) with adjuvents, including FBS, penicillin, and glutamine, provided at levels known to those skilled in this field. For human cancer cells, e.g., human glioblastoma cell line T98G, the cells can be trypsinized and washed prior to formation of a cell suspension in appropriate buffer and plating of the cell suspension. Typical microtiter plate amounts can be 500-2000 cells/well. The cells can be allowed to attach and grow for a defined time period (e.g., 36 hours, 72 hours, 96 hours, or other defined period) before treatment with either vehicle (e.g., dimethylsulfoxide) or test agent (e.g., compound of the invention) followed by an additional defined time period (e.g., 36 hrs, 72 hrs, 96 hrs, and the like). At the end of the additional defined time period, viability of the cells can be determined by any of a variety of methods known in the art, including assays employing MTS (3-(4,5-dimethylthiazol-2-yl)-5-(3-carboxymethoxyphenyl)-2-(4-sulfophenyl)-2H-tetrazolium), as described by -Cory et al., Cancer Commun., 1991, 3, 207-212. […] Replicates are typically assayed to allow determination of appropriate statistical properties as known in the art.
Compounds of the invention with structures of Formulae Xa, XVb, and XVa were assayed for inhibition of growth of the T98G human glioblastoma cell line (Table II).
Human glioblastoma T98G cells (American Type Culture Collection, Manassas, Va.) were maintained as exponentially growing cultures in an RPMI 1640 medium with 10% FBS, 1% penicillin and 1% glutamine. The cells were seeded into 96-well plates and allowed to attach and grow for 48 hours. One plate of cells was used for a time zero cell number determination (N=16), and cells in other plates were treated for 72 hours or 96 hours with either DMSO (1% v/v; N=8 for each plate) or a range of concentrations, in quadruplicate, of test agents. Cell number was determined spectrophotometrically at 490 nm minus absorbance at 630 nm after exposure to 3-(4,5-dimethylthiazol-2-yl)-5-(3-carboxymethoxyphenyl)-2-(4-sulfophenyl)-2H-tetrazolium (MTS) and N-methylphenazine methylsulfate. The fifty percent growth inhibitory concentrations (GI50) of test agents were calculated from the spectrophotometrically determined growth of the control cells over the 72- or 96-hour period.

[1] = 72 h, read-out: GI50 at (72 h) in T98 glioblastoma cells
[2] = 72 h, read-out: GI50 in T98G cell, 72 h
[3] = 96 h, read-out: GI50 at 96 h in T98 glioblastoma cells
[4] = 96 h, read-out: GI50 in T98G cell, 96 h

| Structure (SMILES) | loss in antiproliferative GI50 compared to dolastatin 10 and tubulysins A or D | GI50 (72 h) [µM] | GI50 [1] [µM] | GI50 [2] [µM] | GI50 (96 h) [µM] | GI50 [3] [µM] | GI50 [4] [µM] |
| --- | --- | --- | --- | --- | --- | --- | --- |
| CCC(C)[C@H](NC(=O)[C@H]1CCCCN1C)C(=O)N(C)[C@H](C[C@@H](OC(C)=O)c1nc(C(=O)N[C@@H](Cc2ccccc2)C[C@H](C)C(=O)O)cs1)C(C)C (stereo partly shown) [WZY-III-63C, N^14-Desacetoxytubulysin H trifluoroacetic acid salt] | 1-2 orders of magnitude | 0.43 to 4.4 | 0.0044 | 0.0044 ± 0.011 | 0.35 to 16 | 0.0016 ± 0.0008 | 0.0016 ± 0.0008 |
| CCC(C)[C@H](NC(=O)CN(C)C)C(=O)N(C)[C@H](C[C@H](OC(C)=O)c1nc(C(=O)N[C@@H](Cc2ccccc2)C[C@H](C)C(=O)O)cs1)C(C)C (stereo partly drawn) [WZY-III-64A, (2S,4R)-4-(2-((6S,9R,11S)-6-sec-Butyl-9-isopropyl-2,8-dimethyl-4,7,13-trioxo-12-oxa-2,5,8-triazatetradecan-11-yl)thiazole-4-carboxamido)-2-methyl-5-phenylpentanoic acid] | – | 0.43 to 4.4 | 0.59 | 0.59 ± 1 | 0.35 to 16 | 0.4 ± 0.03 | 0.4 ± 0.03 |
| CCC(C)[C@H](NC(=O)CN(C)C)C(=O)N(C)[C@H](C[C@@H](OC(C)=O)c1nc(C(=O)N[C@@H](Cc2ccccc2)C[C@H](C)C(=O)O)cs1)C(C)C (stereo partly drawn) [WZY-III-69A, (2S,4R)-4-(2-((6S,9R,11R)-6-sec-Butyl-9-iso-propyl-2,8-dimethyl-4,7,13-trioxo-12-oxa-2,5,8-triazatetradecan-11-yl)thiazole-4-carboxamido)-2-methyl-5-phenylpentanoic acid] | – | 0.43 to 4.4 | 0.43 | 0.43 ± 0.13 | 0.35 to 16 | 0.35 ± 0.04 | 0.35 ± 0.04 |

— US20100047841A1, “SYNTHESIS OF DESACETOXYTUBULYSIN H AND ANALOGS THEREOF” (University of Pittsburgh-of the Commonwealth System of …, priority 2007, published 2010)
